Source: US9499550B2 (BRISTOL-MYERS SQUIBB COMPANY, priority 2012, dated 2016)
Where two headings read alike, the source gives them in different places.

Tests used:
[1] = test system: HCV genotype 1b (Con1) replicon in HUH-7 cells; test: HCV replicon luciferase reporter assay, genotype 1b; format: cell-based; settings: Hepatitis C virus, Huh-7, 72 h, 3 days incubation
How it was run: (§1)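 Replicon inhibition for both genotypes was measured as Renilla luciferase signal (EnduRen, 7.5 μM final, 2 h) after 3-day, 37° C exposure of replicon-bearing HUH-7 cells in 4% FCS DMEM, 0.5% DMSO. The 1b construct carries S1179I; the 1a H77 construct carries P1496L and S2204I. Twenty-point, 3-fold dilutions were fitted four-parametrically for EC50, and CC50 was taken from multiplexed Cell Titer-Blue.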

[2] = test system: HCV genotype 1a (H77 strain) replicon in HUH-7 cells; test: HCV replicon luciferase reporter assay, genotype 1a; format: cell-based; settings: Hepatitis C virus, Huh-7, 72 h, 3 days incubation
How it was run: as §1

[3] = HCV genotype 1b replicon luciferase, read-out: LE_1b (EC50, range)
[4] = HCV genotype 1a replicon luciferase, read-out: LE_1a (EC50, range)
[5] = HCV genotype 1b replicon luciferase assay, range class, read-out: LE_1b (EC50, range)
[6] = HCV genotype 1a replicon luciferase assay, range class, read-out: LE_1a (EC50, range)

Structure (SMILES)	EC50 [1, 3] [nM]	EC50 [2, 4] [nM]	EC50 [1, 5] [nM]	EC50 [2, 6] [nM]	EC50 ([1]; HCV genotype 1b replicon luciferase, read-out: LE_1b (EC50)) [nM]	EC50 ([2]; HCV genotype 1a replicon luciferase, read-out: LE_1a (EC50)) [nM]
C[C@@H]1CC/C=C\[C@@H]2C[C@@]2(C(=O)NS(=O)(=O)C2CC2)NC(=O)[C@@H]2C[C@@H](Oc3nccc4c5c(ccc34)N(C)CCO5)CN2C(=O)[C@@H](NC(=O)OC(C)(C)C(F)(F)F)[C@H](C)C1 [Compound 5278, 1,1,1-trifluoro-2-methylpropan-2-yl((2R,6S,7R,9R,13aS,14aR,16aS,Z)-14a-((cyclopropylsulfonyl)carbamoyl)-7,9-dimethyl-2-((4-methyl-3,4-dihydro-2H-[1,4]oxazino[2,3-f]isoquinolin-7-yl)oxy)-5,16-dioxo-1,2,3,5,6,7,8,9,10,11,13a,14,14a,15,16,16a-hexadecahydrocyclopropa[e]pyrrolo[1,2-a][1,4]diazacyclopentadecin-6-yl)carbamate]	< 5.46	< 5.46	–	–	–	–
[2H]C([2H])([2H])C(C)(OC(=O)N[C@@H]1C(=O)N2C[C@H](Oc3nccc4cc(OC(C)C)ccc34)C[C@H]2C(=O)N[C@]2(C(=O)NS(=O)(=O)C3CC3)C[C@H]2/C=C\CC[C@H](C)C[C@H]1C)C([2H])([2H])[2H] [Compound 5152, 1,1,1,3,3,3-hexadeutero-2-methylpropan-2-yl((2R,6S,7R,9S,13aS,14aR,16aS,Z)-14a-((cyclopropylsulfonyl)carbamoyl)-2-((6-isopropoxyisoquinolin-1-yl)oxy)-7,9-dimethyl-5,16-dioxo-1,2,3,5,6,7,8,9,10,11,13a,14,14a,15,16,16a-hexadecahydrocyclopropa[e]pyrrolo[1,2-a][1,4]diazacyclopentadecin-6-yl)carbamate]	4.82 to 103	4.82 to 103	–	–	–	–
CCOc1ccc2c(O[C@@H]3C[C@H]4C(=O)N[C@]5(C(=O)NS(=O)(=O)C6(C)CC6)C[C@H]5/C=C\CC[C@H](C)C[C@@H](C)[C@H](NC(=O)OC(C)(C)C(F)(F)F)C(=O)N4C3)ncc(OC)c2c1 [Compound 3139, 1,1,1-trifluoro-2-methylpropan-2-yl((2R,6S,7R,9S,13aS,14aR,16aS,Z)-2-((6-ethoxy-4-methoxyisoquinolin-1-yl)oxy)-7,9-dimethyl-14a-(((1-methylcyclopropyl)sulfonyl)carbamoyl)-5,16-dioxo-1,2,3,5,6,7,8,9,10,11,13a,14,14a,15,16,16a-hexadecahydrocyclopropa[e]pyrrolo[1,2-a][1,4]diazacyclopentadecin-6-yl)carbamate]	–	–	< 5.46	< 5.46	–	–
CC[C@@H]1C[C@@H](C)CC/C=C\[C@@H]2C[C@@]2(C(=O)NS(=O)(=O)C2CC2)NC(=O)[C@@H]2C[C@@H](Oc3nccc4c5c(ccc34)N(C)CCO5)CN2C(=O)[C@H]1NC(=O)OC(C)(C)C [Compound 5307, tert-butyl ((2R,6S,7R,9S,13aS,14aR,16aS,Z)-14a-((cyclopropylsulfonyl)carbamoyl)-7-ethyl-9-methyl-2-((4-methyl-3,4-dihydro-2H-[1,4]oxazino[2,3-f]isoquinolin-7-yl)oxy)-5,16-dioxo-1,2,3,5,6,7,8,9,10,11,13a,14,14a,15,16,16a-hexadecahydrocyclopropa[e]pyrrolo[1,2-a][1,4]diazacyclopentadecin-6-yl)carbamate]	< 5.46	4.82 to 103	–	–	–	–
COc1nnc(O[C@@H]2C[C@H]3C(=O)N[C@]4(C(=O)NS(=O)(=O)C5(C)CC5)C[C@H]4/C=C\CC[C@@H](C)C[C@@H](C)[C@H](NC(=O)NC(C)(C)C)C(=O)N3C2)c2ccccc12 [Compound 5012, (2R,6S,7R,9R,13aS,14aR,16aS,Z)-6-(3-(tert-butyl)ureido)-2-((4-methoxyphthalazin-1-yl)oxy)-7,9-dimethyl-N-((1-methylcyclopropyl)sulfonyl)-5,16-dioxo-1,2,3,5,6,7,8,9,10,11,13a,14,14a,15,16,16a-hexadecahydrocyclopropa[e]pyrrolo[1,2-a][1,4]diazacyclopentadecine-14a-carboxamide]	< 5.46	< 5.46	–	–	–	–
COCCOc1cnc(O[C@@H]2C[C@H]3C(=O)N[C@]4(C(=O)NS(=O)(=O)C5CC5)C[C@H]4/C=C\CC[C@@H](C)C[C@@H](C)[C@H](NC(=O)OC4COC4)C(=O)N3C2)c2ccc(OC)cc12 [Compound 1159, oxetan-3-yl ((2R,6S,7R,9R,13aS,14aR,16aS,Z)-14a-((cyclopropylsulfonyl)carbamoyl)-2-((6-methoxy-4-(2-methoxyethoxyl)isoquinolin-1-yl)oxy)-7,9-dimethyl-5,16-dioxo-1,2,3,5,6,7,8,9,10,11,13a,14,14a,15,16,16a-hexadecahydrocyclopropa[e]pyrrolo[1,2-a][1,4]diazacyclopentadecin-6-yl)carbamate]	–	–	4.82 to 103	4.82 to 103	–	–
COc1cc2ccccc2c(O[C@@H]2C[C@H]3C(=O)N[C@]4(C(=O)NS(=O)(=O)C5(C)CC5)C[C@H]4/C=C\CC[C@@H](C)C[C@@H](C)[C@H](NC(=O)OC(C)(C)C)C(=O)N3C2)n1 [Compound 6009, tert-butyl ((2R,6S,7R,9R,13aS,14aR,16aS,Z)-2-((3-methoxyisoquinolin-1-yl)oxy)-7,9-dimethyl-14a-(((1-methylcyclopropyl)sulfonyl)carbamoyl)-5,16-dioxo-1,2,3,5,6,7,8,9,10,11,13a,14,14a,15,16,16a-hexadecahydrocyclopropa[e]pyrrolo[1,2-a][1,4]diazacyclopentadecin-6-yl)carbamate]	< 5.46	< 5.46	–	–	0.3	1.12
COc1ccc2c(O[C@@H]3C[C@H]4C(=O)N[C@]5(C(=O)NS(=O)(=O)C6CC6)C[C@H]5/C=C\CC[C@H](C)C[C@@H](C)[C@H](NC(=O)OC(C)(C)C)C(=O)N4C3)nc(-c3ccc(OC(C)C)cn3)cc2c1 [Compound 5200, tert-butyl ((2R,6S,7R,9S,13aS,14aR,16aS,Z)-14a-((cyclopropylsulfonyl)carbamoyl)-2-((3-(5-isopropoxypyridin-2-yl)-6-methoxyisoquinolin-1-yl)oxy)-7,9-dimethyl-5,16-dioxo-1,2,3,5,6,7,8,9,10,11,13a,14,14a,15,16,16a-hexadecahydrocyclopropa[e]pyrrolo[1,2-a][1,4]diazacyclopentadecin-6-yl)carbamate]	< 5.46	< 5.46	–	–	–	–
COc1cnc(O[C@@H]2C[C@H]3C(=O)N[C@]4(C(=O)NS(=O)(=O)C5(CF)CC5)C[C@H]4/C=C\CC[C@@H](C)C[C@@H](C)[C@H](NC(=O)OC(C)(C)CC(F)(F)F)C(=O)N3C2)c2ccccc12 [Compound 1062, 4,4,4-trifluoro-2-methylbutan-2-yl((2R,6S,7R,9R,13aS,14aR,16aS,Z)-14a-(((1-(fluoromethyl)cyclopropyl)sulfonyl)carbamoyl)-2-((4-methoxyisoquinolin-1-yl)oxy)-7,9-dimethyl-5,16-dioxo-1,2,3,5,6,7,8,9,10,11,13a,14,14a,15,16,16a-hexadecahydrocyclopropa[e]pyrrolo[1,2-a][1,4]diazacyclopentadecin-6-yl)carbamate]	–	–	< 5.46	< 5.46	–	–
COc1ccc2c(O[C@@H]3C[C@H]4C(=O)N[C@]5(C(=O)NS(=O)(=O)C6CC6)C[C@H]5/C=C\CC[C@@H](C)C[C@@H](C)[C@H](NC(=O)OC(C)(C)C(F)(F)F)C(=O)N4C3)nc(N(C)C)cc2c1 [Compound 3130, 1,1,1-trifluoro-2-methylpropan-2-yl((2R,6S,7R,9R,13aS,14aR,16aS,Z)-14a-((cyclopropylsulfonyl)carbamoyl)-2-((3-(dimethylamino)-6-methoxyisoquinolin-1-yl)oxy)-7,9-dimethyl-5,16-dioxo-1,2,3,5,6,7,8,9,10,11,13a,14,14a,15,16,16a-hexadecahydrocyclopropa[e]pyrrolo[1,2-a][1,4]diazacyclopentadecin-6-yl)carbamate]	–	–	< 5.46	< 5.46	–	–
COc1ccc2c(O[C@@H]3C[C@H]4C(=O)N[C@]5(C(=O)NS(=O)(=O)C6(C)CC6)C[C@H]5/C=C\CC[C@H](C)C[C@@H](C)[C@H](NC(=O)O[C@@H]5C[C@@H]6C[C@@H]6C5)C(=O)N4C3)nc(-c3ccc(F)cc3)cc2c1 [Compound 3086, (1R,3r,5S)-bicyclo[3.1.0]hexan-3-yl((2R,6S,7R,9S,13aS,14aR,16aS,Z)-2-((3-(4-fluorophenyl)-6-methoxyisoquinolin-1-yl)oxy)-7,9-dimethyl-14a-(((1-methylcyclopropyl)sulfonyl)carbamoyl)-5,16-dioxo-1,2,3,5,6,7,8,9,10,11,13a,14,14a,15,16,16a-hexadecahydrocyclopropa[e]pyrrolo[1,2-a][1,4]diazacyclopentadecin-6-yl)carbamate]	–	–	< 5.46	< 5.46	–	–
COc1ccc2c(O[C@@H]3C[C@H]4C(=O)N[C@]5(C(=O)NS(=O)(=O)C6(C)CC6)C[C@H]5/C=C\CC[C@H](C)C[C@@H](C)[C@H](NC(=O)NC(C)(C)C)C(=O)N4C3)nccc2c1 [Compound 5178, (2R,6S,7R,9S,13aS,14aR,16aS,Z)-6-(3-(tert-butyl)ureido)-2-((6-methoxyisoquinolin-1-yl)oxy)-7,9-dimethyl-N-((1-methylcyclopropyl)sulfonyl)-5,16-dioxo-1,2,3,5,6,7,8,9,10,11,13a,14,14a,15,16,16a-hexadecahydrocyclopropa[e]pyrrolo[1,2-a][1,4]diazacyclopentadecine-14a-carboxamide]	< 5.46	4.82 to 103	–	–	–	–
